Measured values published in patent US20030187023A1, “Sulfone derivatives, process for their production and use thereof” (priority 2000, published 2003).

molecular target: human FXa (Homo sapiens, UniProt P00742); assay: Human activated coagulation factor X (FXa) inhibiting effect; format: biochemical; settings: human FXa (0.3 unit/ml), substrate S-2765, 37° C., tris buffer pH 8.3, absorbance at 405 nm
Procedure: (1) Human Activated Coagulation Factor X (FXa) Inhibiting Effect
Method: A cuvette was charged with 225 μl of 0.05 M tris buffer (pH 8.3) containing 0.145 M sodium chloride and 2 mM calcium chloride, 5 μl of a sample (test compound dissolved in dimethyl sulfoxide) and 10 μl of human FXa (0.3 unit/ml), which were reacted at 37° C. for 10 minutes and then combined with 10 μl of a substrate (3 mM, S-2765) and further reacted at 37° C. for 10 minutes. Then the reaction was terminated by adding 25 μl of 50% aqueous acetic acid, and the change in the absorbance at 405 nm was determined using a spectrophotometer to calculate the concentration at which the FXa effect was inhibited by 50% (IC50).

Chain of human FXa (P00742 235-488 limits assumed): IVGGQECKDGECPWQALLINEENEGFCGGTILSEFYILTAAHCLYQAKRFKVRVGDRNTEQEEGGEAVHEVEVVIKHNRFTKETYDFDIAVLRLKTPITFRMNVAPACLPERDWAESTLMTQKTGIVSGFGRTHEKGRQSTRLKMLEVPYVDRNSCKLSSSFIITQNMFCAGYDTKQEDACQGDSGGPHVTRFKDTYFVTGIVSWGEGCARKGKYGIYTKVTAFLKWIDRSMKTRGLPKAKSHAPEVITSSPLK
Chain of human FXa (P00742 41-179 partner limits assumed): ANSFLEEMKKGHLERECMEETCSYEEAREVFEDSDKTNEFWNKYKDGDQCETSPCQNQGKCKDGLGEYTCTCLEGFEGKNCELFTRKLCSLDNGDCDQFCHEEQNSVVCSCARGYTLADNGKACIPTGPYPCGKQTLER

**Q.** “4-(6-Bromo-2-naphthyl)sulfonyl-N-methyl-N-[1-(2-methyl-4-pyridyl)-4-piperidyl]propanamide [Example 64]” was tested. Which IC50 did it give?
**A.** 36 nM

**Q.** Which IC50 does the source give for “4-(6-Chloro-2-naphthyl)sulfonyl-N-methyl-N-[1-(2-methyl-4-pyridyl)-4-piperidinyl]propanamide [Example 42]” here?
**A.** 61 nM

**Q.** With “4-(6-Chloro-2-naphthyl)sulfonyl-N-methyl-N-[1-(4-pyridyl)-4-piperidyl]propanamide [Example 31]” as the molecule, how does the IC50 read?
**A.** 50 nM

**Q.** CN(CCCS(=O)(=O)c1ccc2cc(Cl)ccc2c1)C(=O)C1CCN(c2ccncc2)CC1 [Example 5, N-[3-(6-Chloro-2-naphthyl)sulfonylpropyl]-N-methyl-1-(4-pyridyl)-4-piperidinecarboxamide] was tested. Which IC50 did it give?
**A.** 95 nM

**Q.** How did the IC50 turn out when COC(=O)CN(CCCS(=O)(=O)c1ccc2cc(Cl)ccc2c1)C(=O)C1CCN(c2ccncc2)CC1 [Example 14, Methyl 2-[N-[3-(6-chloro-2-naphthyl)sulfonylpropyl]-N-[[1-(4-pyridyl)-4-piperidinyl]carbonyl]amino]acetate] was run?
**A.** 60 nM

**Q.** CCOC(=O)CN(C(=O)CCS(=O)(=O)c1ccc2cc(Cl)ccc2c1)C1CCN(c2ccncc2)CC1 [Example 33, Ethyl 2-[N-[3-(6-chloro-2-naphthyl)sulfonylpropioyl]-N-[1-(4-pyridyl)-4-piperidyl]amino]acetate] was tested. Which IC50 did it give?
**A.** 55 nM

**Q.** CCOC(=O)CCN(C(=O)CCS(=O)(=O)c1ccc2cc(Cl)ccc2c1)C1CCN(c2ccncc2)CC1 [Example 34, Ethyl 3-[N-[3-(6-chloro-2-naphthyl)sulfonylpropioyl]-N-[1-(4-pyridyl)-4-piperidyl]amino]propionate] was tested. Which IC50 did it give?
**A.** 37 nM

**Q.** How did the IC50 turn out when CC(=O)NCCN(C(=O)CCS(=O)(=O)c1ccc2cc(Cl)ccc2c1)C1CCN(c2ccnc(C)c2)CC1 [Example 52, N-(2-Acetylaminoethyl)-3-(6-chloro-2-naphthyl)sulfonyl-N-[1-(2-methyl-4-pyridyl)-4-piperidyl]propanamide] was run?
**A.** 49 nM

**Q.** For CC(=O)NCCN(C(=O)CCS(=O)(=O)c1ccc2cc(Cl)ccc2c1)C1CCN(c2ccncc2)CC1 [Example 54, N-(2-Acetylaminoethyl)-3-(6-chloro-2-naphthyl)sulfonyl-N-[1-(4-pyridyl)-4-piperidyl]propanamide], which IC50 is on record?
**A.** 39 nM

**Q.** Which IC50 does the source give for CS(=O)(=O)NCCN(C(=O)CCS(=O)(=O)c1ccc2cc(Cl)ccc2c1)C1CCN(c2ccncc2)CC1 [Example 55, 3-(6-Chloro-2-naphthyl)sulfonyl-N-(2-methylsulfonylaminoethyl)-N-[1-(4-pyridyl)-4-piperidyl]propanamide] here?
**A.** 40 nM

**Q.** With CCOC(=O)CCN(C(=O)CCS(=O)(=O)c1ccc2cc(Cl)ccc2c1)C1CCN(c2ccnc(C)c2)CC1 [Example 67, Ethyl 3-[N-[3-(6-chloro-2-naphthyl)sulfonylpropanoyl]-N-[1-(2-methyl-4-pyridyl)-4-piperidyl]amino]propionate] as the molecule, how does the IC50 read?
**A.** 25 nM

**Q.** For Cc1cc(N2CCC(N(CCC(=O)N3CC[S+]([O-])CC3)C(=O)CCS(=O)(=O)c3ccc4cc(Cl)ccc4c3)CC2)ccn1 [Example 68, 3-(6-Chloro-2-naphthyl)sulfonyl-N-[1-(2-methyl-4-pydiryl)-4-piperidyl]-N-[3-oxy-3-(1-oxothiomorpholin-4-yl)propyl]propionamide], which IC50 is on record?
**A.** 34 nM

**Q.** With CC(=O)N(C)CCN(C(=O)CCS(=O)(=O)c1ccc2cc(Cl)ccc2c1)C1CCN(c2ccnc(C)c2)CC1 [Example 75, N-[2-(N-Acetyl-N-methylamino)ethyl]-3-(6-chloro-2-naphthyl)sulfonyl-N-[1-(2-methyl-4-pyridyl)-4-piperidyl]propanamide] as the molecule, how does the IC50 read?
**A.** 59 nM

**Q.** Which IC50 does the source give for Cc1cc(N2CCC(N(C)C(=O)CCS(=O)(=O)c3ccc4cc(Cl)ccc4c3)CC2)cc(C)n1 [Example 118, 3-(6-Chloro-2-naphthyl)sulfonyl-N-[1-(2,6-dimethyl-4-pyridyl)-4-piperidyl]-N-propanamide] here?
**A.** 63 nM

**Q.** Which IC50 does the source give for Cc1cc(N2CCC(N(Cc3ccccn3)C(=O)CCS(=O)(=O)c3ccc4cc(Cl)ccc4c3)CC2)ccn1 [Example 129, 3-(6-Chloro-2-naphthyl)sulfonyl-N-[1-(2-methyl-4-pyridyl)-4-piperidyl]-N-(2-pyridyl)methylpropanamide] here?
**A.** 66 nM

**Q.** For “N-(2-Aminoethyl)-3-(6-chloro-2-naphthyl)sulfonyl-N-[1-(2-methyl-4-pyridyl)-4-piperidyl]propanamide ditrifluoroacetate [Example 53]”, which IC50 is on record?
**A.** 95 nM
